Results reported in paper PMC12736270, “Application of Data-Centric Supervised Machine Learning to Predict Phenotypic Activity Against Clinically Relevant Stages of Trypanosoma cruzi” (Pharmaceutics, 2025).
Entries after “also recorded” stand apart in the source; their conditions may differ. Like-named read-outs stand apart in the source and are kept apart here.

Key:
[1] = tested on: culture-derived trypomastigotes of the T. cruzi Y strain; assay: Trypanocidal effect on Y strain trypomastigotes (resazurin viability); type: cell-based, Trypanosoma cruzi; conditions: for Activity on Y Trypomastigotes: tested at 10 µM and 50 µM, 24 h
Method: (§1) For the evaluation of the trypanocidal effect of selected drugs on trypomastigotes, assays were performed using culture-derived trypomastigotes of the T. cruzi Y and K98 strains. Parasites were incubated in 96-well plates at a density ranging from 5 × 10^5 to 1 × 10^6 trypomastigotes per well, in a final volume of 100 μL of MEM supplemented with 5% serum. Test compounds were previously dissolved in dimethyl sulfoxide (DMSO) and added to the wells so that the final DMSO concentration was 1%. Wells containing 1% DMSO were used as vehicle controls, and 10 μM BZN served as a positive control. In the case of the Y strain, after 24 h of incubation at 37 °C, 10 μL of resazurin solution was added to reach a final concentration of 0.01 mg/mL. Plates were incubated for approximately 4 h at 37 °C to allow fluorescence development, and readings were performed in a microplate reader with excitation and emission wavelengths of 530 nm and 590 nm, respectively. To calculate EC50 in trypomastigotes, six points were used in a concentration range of 5 to 100 μM. At least three independent assays were performed. In the case of the K98 strain, after 24 h of incubation, motile parasites were counted in a hemocytometer chamber under a light microscope. Controls consisted of RPMI-1640 supplemented with 5% FBS as well as RPMI-1640 with 0.1% DMSO. At least three independent assays were performed.

[2] = tested on: trypomastigotes of the K98 strain (TcI); assay: Trypanocidal effect on K98 strain trypomastigotes (motile parasite count); type: cell-based, Trypanosoma cruzi; conditions: 24 h of incubation
Method: as §1

[3] = tested on: intracellular amastigotes of the Tulahuen strain; assay: Intracellular amastigote assay, Tulahuen β-galactosidase strain in Vero cells; type: cell-based, Trypanosoma cruzi; conditions: for EC50: Trypanosoma cruzi, TULAHUEN, read-out: Activity on Tul Amastigotes; for activity on intracellular amastigotes: Tulahuen strain, infected Vero cells
Method: To evaluate the trypanocidal effect of the selected compounds on intracellular amastigotes, the drug screening method reported by Buckner et al. was adapted. Vero cells were seeded at 1 × 10^4 per well on a 96-well culture plate in 100 μL MEM-5% FBS. Tulahuen trypomastigotes overexpressing the E. coli β-galactosidase protein (LacZ clone C4 strain—ATCC® PRA-330™, ATCC, Manassas, VA, USA) were used to infect Vero cell monolayers (MOI: 10:1) in triplicate. After 2 h incubation at 37 °C, the culture media were removed and non-internalized parasites were eliminated by washing each well with at least 10 vol of sterile PBS 1X, after which fresh MEM-5% FBS was added. After 16–18 h, the culture medium was replaced with culture medium bearing the compounds to be tested at the desired concentration. Test compounds were prepared in DMSO, ensuring a final DMSO concentration of 1%. Cells treated with 1% DMSO were used as vehicle controls. To determine the IC50, each drug was evaluated in at least six different concentrations (usually 0.78, 1.56, 3.13, 6.25, 12.5, and 50.0 μM). The plate was further incubated for another 72 h at 37 °C, after which the culture media were removed and cells and intracellular amastigotes were lysed in 100 μL lysis buffer (25 mM Tris pH 8, 2 mM EDTA, 2 mM DTT, 1% Triton X-100, 10% glycerol in ultrapure MQ water) for 10 min at 37 °C. Then, 100 μL 2X reaction buffer (200 mM sodium phosphate, pH 8, 2 mM MgCl2, 100 mM 2-mercaptoethanol, and 1.33 mg.mL^−1 o-nitrophenyl-β-galactoside (ONPG)) was added, and the reaction was allowed to proceed until a yellow color developed (1–2 h at 37 °C). The absorbance at 420 nm was measured in a Synergy HTX multi-mode microplate reader (Biotek Instruments, Winooski, VT, USA) and normalized to the value obtained for the infection in the absence of inhibitors. IC50 for BZN was also evaluated following this method (concentrations evaluated: 0.10, 0.20, 0.39, 0.78, 1.56, 3.13, 6.25, 12.5, and 50.0 μM). Uninfected cells were included as blanks. Each compound was tested in at least two independent experiments.

[4] = tested on: Vero cells; assay: Cytotoxicity against Vero cells; type: cell-based; conditions: for CC50 Vero Cells: Not toxic = no toxic effect observed up to 50 µM
[5] = set-up: method as in PMID 37061109; conditions: phase III clinical trial, non-alcoholic steatohepatitis; cited from earlier work
[6] = Cytotoxicity against Vero cells; type: cell-based; conditions: African green monkey, Vero cells; Not toxic = no toxic effect observed up to 50 µM
[7] = intracellular amastigotes infecting Vero cells, 72 h
[8] = * not reliable because of the simultaneous toxic effect against Vero cells

C=CC[C@]1(O)CC[C@H]2[C@@H]3CCC4=CC(=O)CCC4=C3C=C[C@@]21C [Altrenogest]
Activity on Y Trypomastigotes [1]: did not exhibit detectable activity; also recorded: Not active | EC50 on K98 Trypomastigotes [2]: Not active

CCCCOCCOc1ccc(-c2ccc3c(c2)/C=C(/C(=O)Nc2ccc([S@@+]([O-])Cc4cncn4CCC)cc2)CCCN3CC(C)C)cc1 [Cenicriviroc]
EC50 [3, 7]: 4.76 µM | activity on intracellular amastigotes [3]: active | selectivity index ([3]; intracellular amastigotes versus Vero cells): greater than 10 | cytotoxic effects on Vero cells [4]: did not present cytotoxic activity | CC50 Vero Cells [4]: Not toxic | primary efficacy endpoints for fibrosis [5]: did not meet its primary efficacy endpoints

C[C@]12CCC3=C4CCC(=O)C=C4CC[C@H]3[C@@H]1CC[C@@]2(O)CC#N [Dienogest]
Activity on Y Trypomastigotes [1]: did not exhibit detectable activity; also recorded: Not active | EC50 on K98 Trypomastigotes [2]: Not active

Cc1ccc(-n2nc(C(C)(C)C)cc2NC(=O)Nc2ccc(OCCN3CCOCC3)c3ccccc23)cc1 [Doramapimod]
EC50 [3, 7]: 11 µM | activity on intracellular amastigotes [3]: active | cytotoxic effects on Vero cells [4]: did not present cytotoxic activity | CC50 Vero Cells [4]: Not toxic

COCCNCc1ccc(-c2cc3nccc(Oc4ccc(NC(=S)NC(=O)Cc5ccc(F)cc5)cc4F)c3s2)nc1 [Glesatinib]
EC50 [3, 8]: 6.49 µM | CC50 [6]: ~25 µM | cytotoxic effects on Vero cells [4]: cytotoxic effects

CC(F)(F)c1cc(F)ccc1-c1sc2cc(O)ccc2c1Oc1ccc(/C=C/C(=O)O)cc1 [LSZ-102]
EC50 [3, 7]: 19.4 µM | activity on intracellular amastigotes [3]: active | cytotoxic effects on Vero cells [4]: did not present cytotoxic activity | CC50 Vero Cells [4]: Not toxic

CC#C[C@]1(O)CC[C@H]2[C@@H]3CCC4=CC(=O)CCC4=C3[C@@H](c3ccc(N(C)C)cc3)C[C@@]21C [Mifepristone]
reduction in parasite viability ([1]; 50 µM, after 24 h of incubation, Y strain): 69.5% | Activity on Y Trypomastigotes [1]: Active | EC50 ([2]; Trypanosoma cruzi): 17.9 µM

CC1(C)CCC(c2ccc(Cl)cc2)=C(CN2CCN(c3ccc(C(=O)NS(=O)(=O)c4ccc(N[C@H](CCN5CCOCC5)CSc5ccccc5)c(S(=O)(=O)C(F)(F)F)c4)cc3)CC2)C1 [Navitoclax]
EC50 [3, 8]: 2.14 µM | CC50 [6]: 6.03 µM | cytotoxic effects on Vero cells [4]: cytotoxic effects
